Results reported in PubChem BioAssay (NCI).
Several values for one entry are separate records, joined by “and”; a condition that tells them apart may be missing. Equal values may be shown once.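 Following 48 hours of exposure in 96-well plates, responses at five concentrations were used to interpolate endpoints linearly. The concentration for 50% growth inhibition is given as GI50. Definition used: TGI = concentration required for complete inhibition of growth.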

Experiments:
Test in all cases: growth of human tumour cells (NCI), 48 h
[1] = test system: KM12 colon
[2] = test system: LOX IMVI melanoma
[3] = test system: OVCAR-4 ovarian
[4] = test system: SF-539 CNS
[5] = test system: SK-MEL-2 melanoma
[6] = test system: SNB-75 CNS
[7] = test system: T-47D breast
[8] = test system: TK-10 renal

Compound | TGI [1] | TGI [2] | TGI [3] | TGI [4] | TGI [5] | TGI [6] [µM] | TGI [7] [µM] | TGI [8] | GI50 [1] [µM] | GI50 [2] [µM] | GI50 [3] [µM] | GI50 [4] [µM] | GI50 [5] [µM] | GI50 [6] [µM] | GI50 [7] [µM] | GI50 [8] [µM]
CCCCCCCCCCCNC=O | > 100 µM | > 100 µM | > 100 µM | > 100 µM | 66.1 µM | > 100 | > 100 | > 100 µM |  |  |  |  |  |  |  | 
NC(N)=NC(N)=Nc1ccc(C(=O)O)cc1 | > 100 µM | > 100 µM | > 100 µM | > 100 µM | > 100 µM | > 100 | > 100 | > 100 µM |  |  |  |  |  |  |  | 
Nc1nc(Cl)nc2c1ncn2C1OC(CO)C(O)C1F (stereo not drawn) | > 100 µM | > 100 µM | > 100 µM | 7.48 µM | > 100 µM | > 26.1 | > 100 | > 83 µM | 1.8 | 2.18 | > 82.2 | 2.07 | > 100 | 0.731 | 10.1 | 0.55
N#CC1=C(N)NC(N2CCOCC2)=NC12Nc1ccccc1O2 (stereo not drawn) | > 100 µM | 81 µM | > 100 µM | > 100 µM | > 100 µM | > 100 | > 100 | > 100 µM | 49.8 | 23.7 | > 100 | 78.7 | 39.7 | > 100 | 80.3 | 34
CN1CCN(Cc2ccc(NC(=O)c3[nH]ncc3Nc3ncnc4[nH]ccc34)cc2)CC1 | 10.9 µM | 0.759 µM | 0.68 µM | 0.429 µM | 0.921 µM | 0.371 | 18.7 | 2.37 µM | 0.347 | 0.201 | 0.215 | 0.133 | 0.325 | 0.0393 | 0.365 | 0.562
FC(F)c1ncc(-c2ccc(C(F)(F)F)cc2)c(NC2CCCCCC2)n1 | > 10 µM | > 10 µM | > 10 µM | > 10 µM | > 10 µM | > 10 | > 10 | > 10 µM | > 10 | > 10 | > 10 | > 10 | > 10 | > 10 | > 10 | > 10
CC(=O)c1c[nH]c2ccc(-c3ccnc(Nc4ccc(NC(=O)C5CCCC5)c(CN5CCOCC5)c4)n3)cc12 | 0.141 µM | 0.0479 µM | 0.573 µM | 0.0681 µM | 0.0585 µM | 0.042 |  | 0.406 µM | 0.0258 | 0.0132 | 0.0453 | 0.0229 | 0.0222 |  | 0.0379 | 0.0274
CN1CCN(CCCOc2ccc3nc(Nc4ccc(F)c(F)c4)ccc3c2)CC1 | 4.16 µM | 3.09 µM | 14.9 µM | 3.73 µM | 3.8 µM | 4.05 | 8.79 | 4.23 µM | 1.89 | 1.53 | 2.84 | 1.8 | 1.91 | 1.35 | 1.88 | 2
CC(C)C1(NC(=O)C2CC3c4cccc5[nH]cc(c45)CC3N(C)C2)OC2(O)C3CCCN3C(=O)C(Cc3ccccc3)N2C1=O (stereo not drawn) | 82.2 µM | 47.7 µM | > 100 µM | > 100 µM | > 100 µM | 86.8 | > 100 | > 100 µM |  |  |  |  |  |  |  | 
CC12CCC(=O)C(O1)C1C(=O)c3ccc4c(ccc5ccccc54)c3C(=O)C12 (stereo not drawn) | 9.66 µM | 3.57 µM | 3.01 µM | 45.3 µM | > 28.6 µM | 54 | > 28.5 | 7.89 µM | 4.99 | 0.477 | 1.4 | 18.8 | 10 | 20.5 | 2.26 | 3.47
COC(=O)CC1(O)C=CC(=O)C=C1 | 3.46 µM | 6.76 µM | 11.6 µM | 12.8 µM | 14.6 µM | 14.2 | 25.7 | 16 µM |  |  |  |  |  |  |  | 
CC(C)=Cc1cc(CCC/C(C)=C/Cc2c(O)cc(C)c(C(=O)O)c2O)co1 | > 100 µM | > 100 µM | > 100 µM | > 100 µM | > 100 µM | > 100 | > 100 | > 100 µM |  |  |  |  |  |  |  | 
C=C(C)[C@@H]1CCc2c(O)c(O)c(=O)cc(C)c2C1 | > 100 µM | > 100 µM | > 100 µM | 7.4 µM | > 100 µM | > 83.3 | 23.7 | 43.7 µM |  |  |  |  |  |  |  | 
COc1cc(OC)c2c(=O)cc(-c3ccccc3OCc3ccccc3)oc2c1OC | 16.2 µM | > 100 µM | > 100 µM | 40 µM | > 100 µM | > 100 | > 100 | 34.9 µM | 3.25 | 10.2 | 6.32 | 12.4 | > 100 | 61.8 | 18.7 | 6.56
Cc1c(Nc2nccc3cc(CN4CC[C@@H](O)C4)cnc23)cccc1-c1cccc(-c2nc3cc(CN4CC[C@@H](C(=O)O)C4)cc(C#N)c3o2)c1C | 27.6 µM | 4.27 µM | > 100 µM | 28.1 µM | > 100 µM | > 100 | > 100 | > 100 µM | 10.7 | 1.97 | 14.3 | 5.9 | > 100 | 15.1 | > 100 | 20.5
Cc1nn(C)c2ncnc(N/N=C/c3cccc(O)c3O)c12 | > 100 µM | 4.05 µM | 23.4 µM | 7.1 µM | > 76.3 µM | 6.8 | > 100 | > 100 µM | 0.392 | 0.238 | 0.378 | 0.371 | 2.98 | 0.548 | 3.25 | 2.64
CCC[CH2][Sn]([CH2]CCC)([CH2]CCC)/[C](=C/[Si](C)(C)c1ccccc1)c1ccc2c(c1)OCO2 | 34.1 µM | 66.7 µM | 36.6 µM | > 100 µM | 63.5 µM | > 100 | 62 | 99.1 µM | 16.2 | 21.3 | 14.9 | 36 | 23.5 | 58.5 | 24.6 | 33.8
COc1cc(S(=O)(=O)Nc2nc(-c3ccc(N4C(=O)C(C)SC4c4ccccc4O)cc3)cs2)ccc1Cl (stereo not drawn) | > 100 µM | > 100 µM | > 100 µM | > 100 µM | > 100 µM | > 100 | > 100 | > 100 µM | 51.1 | 52.1 | 26.4 | 32.6 | 38.7 | 42.4 | 28.8 | 97.6
Cc1ccc(S(=O)(=O)n2cc([C@@]3(O)C[C@H](CSC#N)OC3=O)c3ccccc32)cc1 | 23 µM | 66.4 µM | 43.3 µM | 16.2 µM | 24.4 µM | 71 | 32.5 | 37.8 µM | 4.65 | 8.83 | 15.6 | 4.57 | 9.23 | 15.5 | 12.8 | 16.3
NC1=NC(SCc2ccccc2CCl)c2ncn(Cc3ccccc3CCl)c2N1 (stereo not drawn) | 3.6 µM | 2.92 µM | 10.2 µM | 10.4 µM | 4.89 µM | 5.47 | 3.34 | 11.9 µM | 1.74 | 1.35 | 2.83 | 2.92 | 2.06 | 2.06 | 1.54 | 3.29
COc1cc(/C=C/C(=O)CC(=O)/C=C/c2cc(OC)c(O)c(OC)c2)cc(OC)c1O | 15.4 µM and 31.1 µM | 25 µM and 66.3 µM | 25 µM and > 100 µM | 25 µM and > 100 µM | 16.3 µM and 16.6 µM | 61.4 | 21.5 | 25 µM and > 100 µM | 13.5 | 15.8 | 29.5 | 44.2 | 4.24 |  |  | 34.2
COc1ccc(CSC2=C(C#N)C(=O)NC3(CCCCC3)S2)cc1 |  | > 64.8 µM | > 100 µM | > 100 µM | > 100 µM | > 100 | 63.2 | > 100 µM |  |  |  |  |  |  |  | 
COc1cc(C)cc(C(=O)/C=C/c2ccccc2)c1O | 41.2 µM | 34.8 µM | 45.9 µM |  | 48.2 µM | 72.1 | 44.6 | 35.8 µM |  |  |  |  |  |  |  | 
N#C/C(=C/N1CCN(C(=O)c2ccco2)C1=S)C(=O)Nc1ccc(Cl)cc1 | > 50 µM | > 50 µM | > 50 µM |  | 39.7 µM | > 50 | > 50 | > 50 µM | 16.3 | 16.7 | 25.2 |  | 16.7 | > 50 | > 50 | 19.4
Cc1cc(=O)[nH]c(N/N=C/c2ccccc2O)n1 | > 100 µM | > 100 µM | > 100 µM | > 100 µM | > 100 µM | > 100 | > 100 |  | 18.4 | 8.02 | 2.25 | 7.06 | > 100 | 71.5 | 3.74 | 
O=C1CC(c2cccc(Cl)c2)Oc2ccccc21 (stereo not drawn) | 39.5 µM | 56.5 µM | 94.1 µM | 36.3 µM | 35.6 µM | 66.6 | 91.7 |  |  |  |  |  |  |  |  | 
